Consider 21 compounds from article PMC2867451 (Journal of medicinal chemistry, 2010).

Read-outs that look alike come from different tables or passages of the source.

Data set [1] deals with maximal electroshock seizure (MES). The data set can be described thus: maximal electroshock seizure. It is filed as in vivo, rat. The note with it: for MES, ED50: rat, po. On the technique in general: In the maximal electroshock model the usual endpoint is tonic extension of the hind limbs.
Data set [2] concerns behavioral toxicity. The data set can be described thus: behavioral toxicity, rat. To be noted: for PI: protective index TD50/ED50; for behavioral toxicity observed: rat (po), 500 mg/kg.
Data set [3] concerns maximal electroshock seizure (MES). As to the kind of experiment: maximal electroshock seizure. The format is in vivo, mice. To be noted: for ED50: Mus musculus, ip, read-out: MES, ED50; for duration of action in the MES model: mice (ip) and rat (po).
Data set [4] shares this test system. To be noted: mice, ip; cited from earlier work.
For data set [5], the system named is subcutaneous Metrazol (scMet) seizure. As to the kind of experiment: subcutaneous Metrazol. It is filed as in vivo, mice. The note with it: Mus musculus, ip, read-out: scMet ED50.
Data set [6] concerns behavioral toxicity. The note with it: rat, po; TD50/ED50; cited from earlier work.
Data set [7] relates to neurological impairment (rotorod test). The note with it: mice, ip; TD50/ED50; cited from earlier work.
The test system is the same in data set [8]. As to the kind of experiment: rotorod test for neurological impairment, mice. The format is in vivo. The note with it: mice, ip; rotorod test.
Data set [9] concerns formalin-induced pain response. To be noted: 16 mg/kg; cited from earlier work.
The test system of data set [10] is hippocampal kindled seizure. The note with it: rat; similar screening; cited from earlier work.
The subject of data set [11] is psychomotor 6 Hz (32 mA) seizure. The note with it: mice, ip; cited from earlier work.
Data set [12] can be described thus: rotorod test for neurological impairment, mice. To be noted: male, Carworth Farms No. 1, mouse, in vivo, ip. It is filed as in vivo.
Data set [13] concerns formalin-induced pain response. The data set can be described thus: formalin test, biphasic pain model, mice. The format is in vivo. The note with it: 15 mg/kg; mouse, ip.
The test system of data set [14] is maximal electroshock seizure (MES). To be noted: rat, po; cited from earlier work.
The next data set is described as follows: behavioral toxicity, rat. The note with it: male, Sprague-Dawley, rat, in vivo, po.

For the compound `CC(=O)NC(C(=O)NCc1ccc(OCc2cccc(F)c2)cc1)c1ccccn1` (racemic) [(R,S)-9, N-4′-((3″-Fluoro)benzyloxy)benzyl 2-Acetamido-2-(pyridin-2-yl)acetamide], the “MES, ED50” value in [1] is >30 [4] mg/kg. Also, the “Tox, TD50” value in the data set on behavioral toxicity [2] (rat, po, behavioral toxicity) was >30 [4] mg/kg.
For `COC[C@@H](NC(C)=O)C(=O)NCc1ccc(Oc2cccc(F)c2)cc1` [(R)-12, (R)-N-4′-((3″-Fluoro)phenoxy)benzyl 2-N-Acetamido-3-methoxypropionamide], the ED50 in data set [3] was less than 30 mg/kg.
Take `C[C@H](NCc1ccc(OCc2cccc(F)c2)cc1)C(N)=O` [(S)-4, Safinamide]: in data set [4], the “MES, ED50” value is recorded as 8.0 (7.0–9.1) mg/kg.
For `NC(=O)C(NCc1ccc(OCc2cccc(F)c2)cc1)c1ccco1.O=C(O)C(=O)O` (racemic) [(R,S)-75, 2-(4′-((3″-Fluoro)benzyloxy)benzyl)amino-2-(furan-2-yl)acetamide Oxalate], the ED50 in data set [3] lay in the range of 10 to 30 mg/kg; in data set [5], 100 to 300 mg/kg.
Consider `COCC(NCc1ccc(OCc2cccc(F)c2)cc1)C(N)=O` (racemic) [(R,S)-74, 2-(4′-((3″-Fluoro)benzyloxy)benzyl)amino-3-methoxypropionamide], for which the ED50 in [3] was 30 to 100 mg/kg.
Turning to `COC[C@@H](NC(C)=O)C(=O)NCc1ccc(OCc2ccccc2F)cc1` [(R)-21, (R)-N-4′-((2″-Fluoro)benzyloxy)benzyl 2-Acetamido-3-methoxypropionamide], in the data set on behavioral toxicity [2] (rat, po), the PI is reported as more than 45.
With `C[C@@H](NCc1ccc(OCc2cccc(F)c2)cc1)C(N)=O` [(R)-4], the “MES, ED50” value in data set [4] was 7.2 (5.9–8.9) mg/kg.
In the case of `COC[C@@H](NC(C)=O)C(=O)NCc1ccc(OCc2ccc(F)cc2)cc1` [(R)-22, (R)-N-4′-((4″-Fluoro)benzyloxy)benzyl 2-Acetamido-3-methoxypropionamide], the PI in the data set with behavioral toxicity [2] (rat, po) is recorded as more than 86.
Consider `CCCC(CCC)C(=O)[O-].[Na+]` [valproate], for which the PI in the data set with behavioral toxicity [6] is reported as 0.6; in data set [7], 1.6.
Turning to `O=C1NC(=O)C(c2ccccc2)(c2ccccc2)N1` [phenytoin], the PI in the data set on behavioral toxicity [6] was more than 100.
With `COC[C@H](NC(C)=O)C(=O)NCc1ccc(OCc2cccc(F)c2)cc1` [(S)-10, (S)-N-4′-((3″-Fluoro)benzyloxy)benzyl 2-Acetamido-3-methoxypropionamide], in [3], the ED50 is more than 300 mg/kg. The “Tox, TD50” value in [8] is more than 300 mg/kg.
In the case of `COC[C@@H](NC(C)=O)C(=O)NCc1ccccc1` [(R)-3, Lacosamide], in data set [9], the “reduction in pain, formalin model” value is recorded as “comparable reduction in pain was observed only in the late phase”. The “hippocampal kindled seizure test ED50” value in data set [10] is reported as 14 mg/kg. The “6 Hz (32 mA) ED50” value in [11] is listed as 10 mg/kg.
Regarding `CC(=O)NCC(=O)NCc1ccc(OCc2cccc(F)c2)cc1` [compound 5, N-4′-((3″-Fluoro)benzyloxy)benzyl 2-Acetamidoacetamide], the behavioral toxicity observed result with behavioral toxicity [2] is recorded as “no apparent neurological toxicity”. In addition, in the data set on behavioral toxicity [2] (rat, po), the PI is more than 16.
As to `COC[C@@H](NC(C)=O)C(=O)NCc1ccc(C#Cc2cccc(F)c2)cc1` [(R)-15, (R)-N-4′-(((3″-Fluoro)phenyl)ethynyl)benzyl 2-Acetamido-3-methoxypropionamide], the “duration of action in the MES model” value in data set [3] is listed as “extended duration of action”. Moreover, the “duration of seizure protection” value in data set [1] (MES test, rat (po)) is on record as “extended for the entire 4 h testing period”. Also, the “MES, ED50” value in data set [1] lay in the range of 1.4 to 2.4 mg/kg.
Regarding `CC(=O)N[C@@H](C)C(=O)NCc1ccc(OCc2cccc(F)c2)cc1` [(S)-6, (S)-N-4′-((3″-Fluoro)benzyloxy)benzyl 2-Acetamidopropionamide], in [12], the TD50 is more than 300 mg/kg.
For `COC[C@@H](NC(C)=O)C(=O)NCc1ccc(OCc2cccc(F)c2)cc1` [(R)-10, (R)-N-4′-((3″-Fluoro)benzyloxy)benzyl 2-Acetamido-3-methoxypropionamide], in data set [13], the “pain responses in the acute and the chronic inflammatory phases” value is listed as “reduced pain responses”. In the data set with behavioral toxicity [2] (rat, po), this compound registered a PI of more than 36.
With `COC[C@@H](NC(C)=O)C(=O)NCc1ccc(-c2ccccc2)cc1` [(R)-73, (R)-N-(biphenyl-4-yl)methyl 2-acetamido-3-methoxypropionamide], the “MES, ED50” value in data set [14] is 2.0 mg/kg.
For the compound `COC[C@@H](NC(C)=O)C(=O)NCc1ccc(OCc2ccccc2)cc1` [(R)-20, (R)-N-4′-(Benzyloxy)benzyl 2-N-Acetamido-3-methoxypropionamide], the ED50 in [3] was less than 3 mg/kg. The TD50 in “behavioral toxicity, rat” is more than 10 mg/kg.
Regarding `COC[C@@H](NC(C)=O)C(=O)NCc1ccc(-c2cccc(F)c2)cc1` [(R)-11, (R)-N-(3″-Fluorobiphenyl-4-yl)methyl 2-Acetamido-3-methoxypropionamide], the “MES, ED50” value in [1] lay in the range of 1.4 to 2.4 mg/kg. Further, the behavioral toxicity observed result with behavioral toxicity [2] was “no evidence of behavioral toxicity”.
As to `COC[C@@H](NC(C)=O)C(=O)NCc1ccc(COc2cccc(F)c2)cc1` [(R)-16, (R)-N-4′-(((3″-Fluoro)phenoxy)methyl)benzyl 2-Acetamido-3-methoxypropionamide], in the data set with behavioral toxicity [2] (rat, po), the PI is reported as more than 21.
On to `CC(=O)N[C@H](C)C(=O)NCc1ccc(OCc2cccc(F)c2)cc1` [(R)-6, (R)-N-4′-((3″-Fluoro)benzyloxy)benzyl 2-Acetamido-propionamide], for which the “duration of action in the MES model” value in [3] is “extended duration of action”. The compound also returned a PI in the data set on behavioral toxicity [2] (rat, po) of more than 16.

One may read the ED50 as the midpoint of the dose-response relation. As a reminder, the TD50 is the dose at which the toxic effect under study appears in half of the subjects.
